Patent US11976064B2, “Toll-like receptor agonists” (Pfizer Inc., priority 2019, dated 2024)

Assays:
[1] = target: T1, human toll like receptor 7 (hTLR7) (Homo sapiens, UniProt Q9NYK1); test: hTLR7 cell functional assay (HEK-Blue hTLR7 SEAP reporter); type: cell-based; conditions: HEK293 cells stably overexpressing hTLR7, SEAP reporter; geometric mean when tested more than once
T1 construct: host or cells: HEK293 (HEK-Blue hTLR7)
T1 sequence (Q9NYK1 27-1049): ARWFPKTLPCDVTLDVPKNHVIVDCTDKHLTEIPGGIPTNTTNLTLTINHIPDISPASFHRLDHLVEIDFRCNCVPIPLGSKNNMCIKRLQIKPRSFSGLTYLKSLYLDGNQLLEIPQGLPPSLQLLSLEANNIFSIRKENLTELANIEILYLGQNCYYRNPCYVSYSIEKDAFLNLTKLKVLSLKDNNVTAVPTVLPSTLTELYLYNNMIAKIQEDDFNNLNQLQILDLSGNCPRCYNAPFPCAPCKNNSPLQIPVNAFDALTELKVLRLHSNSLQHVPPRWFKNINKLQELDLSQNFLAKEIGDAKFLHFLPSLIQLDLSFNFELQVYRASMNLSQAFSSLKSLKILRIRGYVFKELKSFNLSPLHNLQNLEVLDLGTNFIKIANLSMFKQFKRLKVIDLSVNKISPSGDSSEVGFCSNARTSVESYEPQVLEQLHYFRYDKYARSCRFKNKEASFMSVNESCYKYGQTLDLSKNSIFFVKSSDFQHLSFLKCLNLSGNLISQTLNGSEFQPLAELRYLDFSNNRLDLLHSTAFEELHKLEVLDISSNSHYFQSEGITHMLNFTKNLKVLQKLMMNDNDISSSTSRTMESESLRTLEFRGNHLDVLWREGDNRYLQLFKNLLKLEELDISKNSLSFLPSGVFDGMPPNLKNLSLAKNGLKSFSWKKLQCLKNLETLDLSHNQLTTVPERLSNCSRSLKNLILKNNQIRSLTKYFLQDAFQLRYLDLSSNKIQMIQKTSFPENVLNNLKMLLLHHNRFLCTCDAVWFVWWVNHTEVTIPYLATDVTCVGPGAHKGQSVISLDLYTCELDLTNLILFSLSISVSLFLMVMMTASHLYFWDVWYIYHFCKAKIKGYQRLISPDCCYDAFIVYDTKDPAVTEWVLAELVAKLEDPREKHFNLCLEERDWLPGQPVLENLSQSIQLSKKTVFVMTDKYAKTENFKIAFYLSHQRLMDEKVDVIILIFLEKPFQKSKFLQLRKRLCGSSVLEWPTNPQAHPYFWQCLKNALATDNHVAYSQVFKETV
Description: (§1) The Examples described were tested for biological activity in functional cellular assays using HEK293 cells stably overexpressing human TLR7 or TLR8. The assays tested for the ability of each Example to stimulate secretion of interferon alpha (IFNα) in human primary blood mono nuclear cells (PBMC).
(§2) To determine the ability of each Example to activate the human toll like receptor 7 (hTLR7) or human toll like receptor 8 (hTLR8), cell-based reporter systems were utilized. HEK293 cells stably overexpressing either hTLR7 or hTLR8 along with a reporter gene containing an optimized secreted embryonic alkaline phosphatase gene (SEAP), under the control of the IFN-b minimal promoter fused to five NF-κB and AP-1-binding sites, were obtained from Invivogen (HEK-Blue™ hTLR7, cat #Hkb-ht1r7; HEK-Blue™ hTLR8, cat #Hkb-ht1r8). Stimulation of hTLR7 or hTLR8 in these cells activates NF-κB and AP-1 and induces the production of SEAP which can be quantified using an alkaline phosphatase detection reagent.
(§3) Cells were maintained in Dulbecco's Modified Eagle Media (DMEM) (containing Fetal Bovine Serum (FBS) heat inactivated (10%), Glutamax (2 mM), Penicillin/Streptomycin, Blasticidin (10 μg/ml), Zeocin (100 μg/ml) and Normocin (100 μg/ml)). On day one of the assay, Examples were prepared using 11-point half-log serial dilutions from a 10mM DMSO stock solution and 50 nl was spotted into 384-well Viewplates (PerkinElmer, cat #6007480). Positive control TLR7/8 agonist and negative control (DMSO, no Example) were also spotted within the assay plate and were used to determine percent effect during the analysis process. After resuspension in DMEM assay media containing FBS heat inactivated (10%), Glutamax (2 mM) and Penicillin/Streptomycin, 10,000 cells/20 μl/well were added to previously prepared plates. Plates were incubated overnight (16-20 hrs) at 37° C. in a 5% CO2 environment. Prewetted Microclime lids (Labcyte, LLS-0310) were used to prevent evaporation. On day two of the assay, QUANTI-Blue™ detection reagent was prepared by reconstituting QUANTI-Blue™ powder (InvivoGen, Rep-qb1) with 100 ml of sterile water and allowed to equilibrate to 37° C. for 15 minutes. 20 μl of QUANTI-Blue™ detection reagent was added to each well and plates were incubated at room temperature for 180 min. At the end of the incubation, plates were read on an Envision (Perkin Elmer) plate reader capturing absorbance at 650 nm.
(§4) Using Positive (TLR7/8 agonist) and Negative (DMSO) controls, the percent (%) effect was calculated for each Example using the following equation: effect=100−[100*{(Example−Positive Control)/(Negative Control−Positive Control)}]
(§5) The % effect at each concentration of each Example was calculated utilizing the ABase software suite (IBDS) and was relative to the amount of SEAP produced in the positive and negative control wells contained within each assay plate. The concentrations and % effect values for each Example were fit using a 4-parameter logistic model in ABase and the concentration of each Example that produced 50% response (EC50) was calculated.

[2] = target: T2, human toll like receptor 8 (hTLR8) (Homo sapiens, UniProt Q9NR97); test: hTLR8 cell functional assay (HEK-Blue hTLR8 SEAP reporter); type: cell-based; conditions: HEK293 cells stably overexpressing hTLR8, SEAP reporter; geometric mean when tested more than once
T2 construct: host or cells: HEK293 (HEK-Blue hTLR8)
T2 sequence (Q9NR97 27-1041): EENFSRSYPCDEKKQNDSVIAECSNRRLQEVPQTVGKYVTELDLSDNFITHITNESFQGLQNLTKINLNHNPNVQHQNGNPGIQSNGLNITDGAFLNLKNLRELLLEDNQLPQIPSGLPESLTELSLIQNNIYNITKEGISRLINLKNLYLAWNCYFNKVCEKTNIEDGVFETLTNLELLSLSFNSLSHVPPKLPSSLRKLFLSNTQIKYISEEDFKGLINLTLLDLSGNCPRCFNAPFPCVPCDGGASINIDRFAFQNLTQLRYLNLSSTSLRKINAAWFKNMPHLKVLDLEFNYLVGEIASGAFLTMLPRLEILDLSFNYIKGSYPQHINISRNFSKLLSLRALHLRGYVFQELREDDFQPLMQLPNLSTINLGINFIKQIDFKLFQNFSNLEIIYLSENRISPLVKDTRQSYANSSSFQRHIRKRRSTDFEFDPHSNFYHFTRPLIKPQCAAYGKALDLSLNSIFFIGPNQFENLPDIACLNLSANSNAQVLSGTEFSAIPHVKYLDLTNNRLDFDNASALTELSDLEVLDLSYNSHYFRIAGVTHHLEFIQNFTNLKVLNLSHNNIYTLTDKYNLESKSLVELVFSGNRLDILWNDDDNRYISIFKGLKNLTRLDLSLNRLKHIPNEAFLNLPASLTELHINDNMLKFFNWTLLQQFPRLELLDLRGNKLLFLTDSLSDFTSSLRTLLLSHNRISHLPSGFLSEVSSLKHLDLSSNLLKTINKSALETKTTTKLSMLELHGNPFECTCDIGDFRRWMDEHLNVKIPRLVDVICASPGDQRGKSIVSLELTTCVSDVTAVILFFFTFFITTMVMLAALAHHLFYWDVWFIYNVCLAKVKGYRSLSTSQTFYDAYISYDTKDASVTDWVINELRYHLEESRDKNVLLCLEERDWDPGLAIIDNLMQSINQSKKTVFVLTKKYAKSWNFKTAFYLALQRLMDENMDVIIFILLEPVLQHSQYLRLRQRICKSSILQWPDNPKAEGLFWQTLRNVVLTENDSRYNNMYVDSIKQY
Description: as §1, §2, §3, §4, §5

[3] = tested on: superficial basal cell carcinomas; conditions: marketed 5% cream (Aldara); cited from earlier work

| EC50 [1] | EC50 [2] | Compound | 5-year clearance of superficial basal cell carcinomas [3] |
| --- | --- | --- | --- |
| 54 nM | 400 nM | CCOCc1nc2c(N)nc3c(c2n1CC(C)(CO)CO)CCC3 [Example 4, 2-((4-amino-2-(ethoxymethyl)-7,8-dihydrocyclopenta[b]imidazo[4,5-d]pyridin-1(6H)-yl)methyl)-2-methylpropane-1,3-diol] | – |
| 13 nM | 160 nM | CCCCc1nc2c(N)nc(C)c(C)c2n1CC(C)(CO)CO [Example 11, 2-((4-amino-2-butyl-6,7-dimethyl-1H-imidazo[4,5-c]pyridin-1-yl)methyl)-2-methylpropane-1,3-diol] | – |
| 42 nM | 273 nM | CCOCc1nc2c(N)nc3c(c2n1CC(C)(CO)CO)CCCC3 [Example 5, 2-((4-amino-2-(ethoxymethyl)-6,7,8,9-tetrahydro-1H-imidazo[4,5-c]quinolin-1-yl)methyl)-2-methylpropane-1,3-diol] | – |
| 9 nM | 310 nM | COCCc1nc2c(N)nc3ccccc3c2n1CC(C)(CO)CO [Example 19, 2-((4-amino-2-(2-methoxyethyl)-1H-imidazo[4,5-c]quinolin-1-yl)methyl)-2-methylpropane-1,3-diol] | – |
| 156 nM | 1060 nM | COCCc1nc2c(N)nc3c(c2n1CC(C)(CO)CO)CCC3 [Example 17, 2-((4-amino-2-(2-methoxyethyl)-7,8-dihydrocyclopenta[b]imidazo[4,5-d]pyridin-1(6H)-yl)methyl)-2-methylpropane-1,3-diol] | – |
| 9 nM | 191 nM | CCCCCc1nc2c(N)nc3ccccc3c2n1CC(C)(CO)CO [Example 12, 2-((4-amino-2-pentyl-1H-imidazo[4,5-c]quinolin-1-yl)methyl)-2-methylpropane-1,3-diol] | – |
| – | – | CC(C)Cn1cnc2c(N)nc3ccccc3c21 [Imiquimod] | approximately 80% |
| 16 nM | 119 nM | COCCc1nc2c(N)nc3c(c2n1CC(C)(CO)CO)CCCC3 [Example 18, 2-((4-amino-2-(2-methoxyethyl)-6,7,8,9-tetrahydro-1H-imidazo[4,5-c]quinolin-1-yl)methyl)-2-methylpropane-1,3-diol] | – |
